ChEMBL document CHEMBL1127333, “Antiviral enantiomeric preference for 5'-noraristeromycin” (J Med Chem, 1994)
≈ marks a conversion by molar mass, not a printed value.

Key:
[1] = species on record: Homo sapiens; test: Inhibitory concentration on human T-lymphocyte Molt(clone 8) cells; format: functional, cell-based
[2] = target: Adenosylhomocysteinase (Mus musculus, UniProt P50247); test: Binding affinity against L929 cells AdoHcy hydrolase activity; format: cell-based
[3] = species on record: Homo sapiens; test: Inhibitory concentration on human T-lymphocyte CEM/0 cells; format: functional, cell-based; conditions: CCRF-CEM
[4] = test system: L1210; test: Inhibitory concentration on murine leukemia L1210/0 cells; format: functional, cell-based; conditions: Mus musculus
[5] = species on record: Homo sapiens; test: Inhibitory concentration on human T-lymphocyte Molt4 (clone 8) cells; format: functional, cell-based; conditions: MOLT-4
[6] = test system: Vero; test: Activity against reovirus-1 induced cytopathicity in Vero cells; format: functional; conditions: Chlorocebus sabaeus
[7] = test system: E6SM; test: Activity against HSV-1(KOS) virus induced cytopathicity in E6SM cells; format: functional; conditions: Homo sapiens
[8] = test system: Vero; test: cells; conditions: Chlorocebus sabaeus
[9] = test system: Respiratory syncytial virus; test: Activity against RSV (strain Long) virus induced cytopathicity in HeLa cells; format: functional; conditions: human respiratory syncytial virus
[10] = test system: CCRF-CEM; test: Activity against HIV-1 induced cytopathicity in CEM cells; format: functional; conditions: Homo sapiens
[11] = test system: HEL; test: Activity against VZV (OKA) induced cytopathicity in HEL cells; format: functional; conditions: Homo sapiens
[12] = test system: HeLa; test: Activity against parainfluenza-3 virus induced cytopathicity in HeLa cells; format: functional; conditions: Homo sapiens
[13] = test system: CCRF-CEM; test: Activity against HIV-2 induced cytopathicity in CEM cells; format: functional; conditions: Homo sapiens
[14] = test system: E6SM; test: Activity against VSV virus induced cytopathicity in E6SM cells; format: functional; conditions: Homo sapiens
[15] = test system: Vero; test: Activity against semliki forest virus induced cytopathicity in Vero cells; format: functional; conditions: Chlorocebus sabaeus
[16] = test system: Vero; test: Activity against sindbis virus induced cytopathicity in Vero cells; format: functional; conditions: Chlorocebus sabaeus
[17] = test system: E6SM; test: Activity against VV virus induced cytopathicity in E6SM cells; format: functional; conditions: Homo sapiens
[18] = test system: HeLa; test: cells; conditions: Homo sapiens
[19] = test system: HEL; test: Activity against CMV (AD-169) induced cytopathicity in HEL cells; format: functional; conditions: Homo sapiens
[20] = test system: HeLa; test: Activity against VSV virus induced cytopathicity in HeLa cells; format: functional; conditions: Homo sapiens
[21] = test system: MDCK; test: Activity against influenza B virus induced cytopathicity in MDCK cells; format: functional; conditions: Canis lupus familiaris
[22] = test system: HEL; test: Activity against CMV (Davis) induced cytopathicity in HEL cells; format: functional; conditions: Homo sapiens
[23] = test system: MDCK; test: Activity against influenza A virus induced cytopathicity in MDCK cells; format: functional; conditions: Canis lupus familiaris
[24] = test system: Vero; test: cells; conditions: Chlorocebus sabaeus; remark: listed apart in the source
[25] = test system: HEL; test: Activity against VZV (YS) induced cytopathicity in HEL cells; format: functional; conditions: Homo sapiens
[26] = test system: E6SM; test: Activity against HSV-2(G) virus induced cytopathicity in E6SM cells; format: functional; conditions: Homo sapiens
[27] = test system: HeLa; test: Activity against coxsackie B4 virus induced cytopathicity in HeLa cells; format: functional; conditions: Homo sapiens
[28] = test system: MDCK; test: cells; conditions: Canis lupus familiaris
[29] = test system: MDCK; test: cells; conditions: Canis lupus familiaris; remark: listed apart in the source

Adenosylhomocysteinase, sequence (P50247 whole entry): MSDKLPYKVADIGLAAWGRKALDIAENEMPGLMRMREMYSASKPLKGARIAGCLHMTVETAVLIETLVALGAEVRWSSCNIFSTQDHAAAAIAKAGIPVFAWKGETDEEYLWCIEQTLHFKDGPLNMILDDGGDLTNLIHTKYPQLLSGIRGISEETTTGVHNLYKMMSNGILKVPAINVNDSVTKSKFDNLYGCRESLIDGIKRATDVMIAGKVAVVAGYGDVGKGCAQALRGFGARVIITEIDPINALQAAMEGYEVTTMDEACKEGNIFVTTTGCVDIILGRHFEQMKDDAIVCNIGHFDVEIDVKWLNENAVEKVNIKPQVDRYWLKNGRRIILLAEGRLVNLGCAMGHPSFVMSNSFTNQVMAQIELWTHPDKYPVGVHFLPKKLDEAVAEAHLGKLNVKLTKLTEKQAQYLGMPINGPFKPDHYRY

Structure (SMILES): Nc1ncnc2c1ncn2C1CC(O)C(O)C1O (racemic)
- IC50 [1]: 580 nM
- Ki [2]: 11.1 nM
- IC50 [3]: 680 nM
- IC50 [4]: 630 nM

Structure (SMILES): Nc1ncnc2c1ncn2[C@@H]1C[C@H](O)[C@@H](O)[C@H]1O [NORARISTEROMYCIN]
- IC50 [5]: 390 nM
- MIC50 [6]: 0.7 µg/mL (≈ 2.79 µM)
- MIC50 [7]: > 400 µg/mL
- MIC50 [8]: 6 µg/mL (≈ 23.9 µM)
- MIC50 [9]: > 200 µg/mL
- MIC50 [10]: > 0.16 µg/mL
- MIC50 [11]: > 50 µg/mL
- MIC50 [12]: 0.07 µg/mL (≈ 0.279 µM)
- MIC50 [13]: > 0.16 µg/mL
- MIC50 [14]: 0.1 µg/mL (≈ 0.398 µM)
- MIC50 [15]: > 400 µg/mL
- MIC50 [16]: > 400 µg/mL
- MIC50 [17]: 0.04 µg/mL (≈ 0.159 µM)
- MIC50 [18]: > 400 µg/mL
- MIC50 [19]: 0.01 µg/mL (≈ 0.0398 µM)
- MIC50 [20]: 0.2 µg/mL (≈ 0.796 µM)
- MIC50 [21]: > 100 µg/mL
- MIC50 [22]: 0.03 µg/mL (≈ 0.119 µM)
- IC50 [3]: 420 nM
- IC50 [4]: 500 nM
- MIC50 [23]: > 100 µg/mL
- MIC50 [24]: 8 µg/mL (≈ 31.8 µM)
- MIC50 [25]: > 50 µg/mL
- MIC50 [26]: > 400 µg/mL
- MIC50 [27]: > 400 µg/mL

Structure (SMILES): Nc1ncnc2c1ncn2[C@@H]1C=C(CO)[C@@H](O)[C@H]1O [NEOPLANOCIN A]
- MIC50 [28]: > 2.8 µg/mL
- MIC50 [6]: 0.7 µg/mL (≈ 2.66 µM)
- MIC50 [7]: 70 µg/mL (≈ 266 µM)
- MIC50 [8]: 0.4 µg/mL (≈ 1.52 µM)
- MIC50 [9]: > 1.2 µg/mL
- MIC50 [29]: 1.2 µg/mL (≈ 4.56 µM)
- MIC50 [11]: 6 µg/mL (≈ 22.8 µM)
- MIC50 [12]: 0.2 µg/mL (≈ 0.76 µM)
- MIC50 [14]: 2 µg/mL (≈ 7.6 µM)
- MIC50 [15]: > 10 µg/mL
- MIC50 [16]: > 10 µg/mL
- MIC50 [17]: 0.2 µg/mL (≈ 0.76 µM)
- MIC50 [18]: > 10 µg/mL
- MIC50 [19]: 0.2 µg/mL (≈ 0.76 µM)
- MIC50 [20]: 2 µg/mL (≈ 7.6 µM)
- Ki [2]: 3 nM
- MIC50 [22]: 0.2 µg/mL (≈ 0.76 µM)
- MIC50 [24]: 0.4 µg/mL (≈ 1.52 µM)
- MIC50 [25]: 3.5 µg/mL (≈ 13.3 µM)
- MIC50 [26]: > 100 µg/mL
- MIC50 [27]: > 10 µg/mL

Structure (SMILES): Nc1ncnc2c1ncn2[C@H]1C[C@@H](O)[C@H](O)[C@@H]1O
- IC50 [5]: 4650 nM
- MIC50 [28]: > 200 µg/mL
- MIC50 [6]: 7 µg/mL (≈ 27.9 µM)
- MIC50 [7]: > 400 µg/mL
- MIC50 [8]: 30 µg/mL (≈ 119 µM)
- MIC50 [9]: > 200 µg/mL
- MIC50 [29]: > 200 µg/mL
- MIC50 [10]: > 4 µg/mL
- MIC50 [11]: > 50 µg/mL
- MIC50 [12]: 0.2 µg/mL (≈ 0.796 µM)
- MIC50 [13]: > 4 µg/mL
- MIC50 [14]: 2 µg/mL (≈ 7.96 µM)
- MIC50 [15]: > 400 µg/mL
- MIC50 [16]: > 400 µg/mL
- MIC50 [17]: 0.7 µg/mL (≈ 2.79 µM)
- MIC50 [18]: > 400 µg/mL
- MIC50 [19]: 5 µg/mL (≈ 19.9 µM)
- MIC50 [20]: 2 µg/mL (≈ 7.96 µM)
- MIC50 [22]: 3 µg/mL (≈ 11.9 µM)
- IC50 [3]: 3990 nM
- IC50 [4]: 5700 nM
- MIC50 [24]: 50 µg/mL (≈ 199 µM)
- MIC50 [25]: > 50 µg/mL
- MIC50 [26]: > 400 µg/mL
- MIC50 [27]: > 400 µg/mL
